# Test results as given in US20050228031A1, “Tyrosine kinase inhibitors” (priority 2004, published 2005).
row,melting point,Structure (SMILES)
1,144 °C,"Cc1cc(C)cc(Nc2ncc(-c3ccccc3)s2)c1 [Compound 2-3, N-(3,5-dimethylphenyl)-5-phenyl-1,3-thiazol-2-amine]"
2,169 to 170 °C,"c1ccc(Nc2ncc(-c3ccccc3)o2)cc1 [Compound 5-4, N,5-diphenyl-1,3-oxazol-2-amine]"
3,152 °C,"c1ccc(-c2cnc(Nc3ccc4c(c3)CCC4)o2)cc1 [Compound 5-5, N-(2,3-dihydro-1H-inden-5-yl)-5-phenyl-1,3-oxazol-2-amine]"
4,203 °C,"FC(F)(F)c1cc(Nc2ncc(-c3ccccc3)o2)cc(C(F)(F)F)c1 [Compound 5-6, N-[3,5-bis(trifluoromethyl)-phenyl]-5-phenyl-1,3-oxazol-2-amine]"
